Three substances from patent US6218112A, “Optimization of gene delivery and gene delivery system” (Cobra Therapeutics Limited, priority 1997, dated 2001) can be followed below.

Experiment [1] relates to KLN-205 squamous epithelial syngenic tumour cells. Kind of experiment: In vivo transfection of KLN-205 tumours in DBA2 mice by local injection of peptide/plasmid complexes (nitroreductase immunostaining). Further details: species or system mouse. The note with it: 0.5 μg peptide/μg DNA, intratumoural injection. On the procedure:
A representative in via cell transfection system is transfection of tumor cells using a murine carcinoma model.
The murine carcinoma model DBA2 containing the squamous epithelial syngenic tumour cell line KLN-205 was prepared as described in the Examples. A transfecting complex was prepared using a solution of plasmid DNA encoding a reporter gene or, for example, nitroreductase and a selected NBC peptide 0.5 μg peptide/μg DNA, as described herein. Where desired, a conjugate peptide was added to the transfecting complex, at a concentration of 0.1-0.3 μg […] peptide/μg DNA.
Transfection efficiency may be determined in a number of ways, including assessing the effect of the reporter gene on the target tissue, or by quantitating the gene product. Below, tissues samples were obtained and nitroreductase gene expression was ascertained via staining of tissue sections.
The ability to transfect tumor cells in vivo in mice was tested using plasmid nucleic acid carrying the nitroreductase reporter gene condensed on each of the following peptides: NBC15, NBC8, NBC9, NBC11, NBC7.
DBA2--male mice, aged 5-10 weeks were injected subcutaneously in each flank with a squamous epithelial syngenic tumour cell line KLN-205. The cell line was grown up in 175 ml T-flasks in standard EMEM medium containing 10% foetal calf serum. When the cells reached a density of 4×10^6 they were suspended by a standard trypsinization technique, washed in PBS and diluted to a final concentration of […].
The anaesthetic was Enflurane (Alynane; Anaquest, Ltd., Windlesham, Surrey UK): Ketamine (10% Ketaset, Willows Francis Veterinary, Cramley, West Sussex, UK); Rompun (2%, Bayer UK, Ltd., Suffolk, UK). For 10 ml anaesthetic mixture: 8.5 ml PBS; 1 ml Ketamine; 0.5 ml Rompun. Each animal was injected intra-peritoneally with 200 μl/animal using 1 ml syringe with 25 gauge needle. Once anaesthetized, the tumour is manipulated between the fingers lifting it slightly away from the animal's body and at the same time apply minimum pressure to the tumour. Using a 0.5 ml insulin needle the formulated delivery vehicle (a plasmid containing the E. coli nitroreductase gene condensed on a peptide at a ratio of 0.5 μg peptide/μg DNA) to be injected is taken up and the tumour is injected horizontally trying to avoid any visible blood vessels and necrotic or abnormal tissue. Daily monitoring is continued until the experiment is terminated.
7μ sections of frozen tumour tissue are prepared using standard methods and a Cryostat and air dried. Sections are fixed with freshly prepared 4% PFA/PBS for 30 mins at room temperature and then washed twice with 0.01% Tween-20/PBS 5 mins each wash. Sections are then immersed in 0.25% hydrogen peroxide/PBS, at room temperature (20C.) for 30 mins, and then washed three times in 0.01% Tween 20/PBS for 5 mins each wash. Sections are then permeabilised by treatment with ice cold 0.1 % TRITON X-100 for 5 mins, followed by a further two washes in 0.01% Tween-20/PBS 5mins each wash. The sections are then blocked with 5% NGS/PBS 60mins at room temperature in a wetbox. After decanting the blocking solution, 0.5 ml diluted antiserum/slide (1:400 in 2.5% NGS) is added and the sections incubated for 60 mins at room temperature. Slides are then washed three times in 0.01% Tween-20/PBS 5 mins each wash. Secondary antibody (0.5 ml) from ABC Elite Vector stain kit is added as follows and incubated 30 mins at room temperature in a wetbox.
The tumour is a murine syngenic squamous carcinoma produced by subcutaneous injection of KLN205 cells. When the tumours were approximately 4 mm in diameter they were injected with 20 μl of plasmid DNA formulated with the NBC15 peptide. After 48 h the tumours were excised and sectioned by standard histological techniques and immunostained for expression of the transgene (E. coli nitroreductase). […] In this case the tumours were injected with the same plasmid formulated in 0.5 μg NBC9 peptide/μg DNA.

The test system of experiment [2] is plasmid nucleic acid pRSVLuc. Put plainly: Surface plasmon resonance (BIAcore) binding kinetics of peptides/conjugates to immobilized biotinylated plasmid DNA. The note with it: for ka: apparent rate constant for association; for ka / kd: SPR, PBS, 25° C.; for kd: apparent rate constant for dissociation. On the procedure: In the examples described below, SPR was detected using the BIAcore system. This machine contained an SPR detector and an integrated microfluidic cartridge which is engineered such that an analyte solution (cationic peptide) is continuously passed over the sensor chip. The sensor chip consists of a glass plate coated with a thin film of gold covered in a layer of carboyxymethyl dextran. The chip used has a dextran layer to which streptavidin is covalently attached. The chip is prepared for use by adding biotinylated nucleic acid which will be bound to the chip via the streptavidin-biotin interaction, and the same chip is used in a series of experiments.
As material binds to the immobilized nucleic acid molecule on the sensor chip, the SPR angle of plane polarized light shining on the surface of the chip is monitored by the detector. Changes in angle are defined as resonance units (RU) and data are collected every second. Background effects are detected and automatically subtracted by the use of a control flow cell in line with the nucleic acid flow cell.
A typical sensorgram has three phases: an association phase, an equilibrium phase and a dissociation phase (see FIG. 1). The rise in signal occurs as more peptide binds to the immobilized plasmid DNA until equilibrium conditions are reached. The height of the peak is directly proportional to the mass of peptide bound. If the flow continues with buffer containing no peptide, peptide begins to dissociate from the complex and the resonance signal is reduced. The sensorgram can be used to compute apparent rate constants for each of the three individual processes.
(1) dC/dt=ka [PF ] [Pmax -PB ]-kd [PB ]
Measurement of Binding Kinetics by Surface Plasmon Resonance
A 6 kilobase (kb) plasmid DNA (pRSVLuc) was biotinylated using photoactivatable biotin (Pierce and Warriner) as per manufacturer's instructions.
A sensor chip with immobilized streptavidin (SA5) was conditioned following manufacturer's instructions, i.e., three one-minute injections of 1 M NaCl: 50 mM NaOH followed by one 1 min injection of 0.5% SDS. Flow rate on the BlAcore sensing device was 20 μl per min, running buffer was phosphate buffered saline (PBS). Flow path was flow cells 1 and 2.
The flow path was switched to flow cell 2 only and the flow rate was reduced to 10 μl per minute. Biotinylated plasmid at a concentration of […] in 0.5M NaCl was injected for 3 mins.
Phosphate buffered saline was used as running buffer at a flow rate of 20 μl per minute. The flow path was over flow cells 1 and 2. Flow cell 1 was used as a reference cell. The experiments were carried out at a temperature of 25° C.
Peptides were injected at various concentrations for three minutes. The injection was followed by a 5 min dissociation phase before the injection port was washed. The sensor chip was regenerated by the injection of 2M NaCl for 1 min. If necessary, this injection was repeated to bring the response back down to baseline before the next peptide sample was injected.
The data was analysed using the methods described in the handbook (BIAevaluation 2.1. Software Handbook, Pharmacia Biosensor AB, Uppsala, Sweden).
Essentially the plots were evaluated as follows: The dissociation constant, kd, was determined first. A curve or family of curves (same NBC at different concentrations) were plotted as response (Y) versus time as Ln (Yo/Y) versus time. In the area where the Ln(Yo/Y) curve was linear, a fit of the default dissociation model [AB]=[A]+[B] was made. The association constant, ka, was then calculated by fitting the related association model on that part of the association curve where a plot of In(abs(dY/dt) versus time was linear. KD were approximated by dividing the calculated kd with the calculated ka.

The next experiment has as its system Jurkat cell line. Put plainly: In vitro transfection with pRSVLuc (luciferase) condensed on peptides. The format is cell-based. Conditions: peptide 2 μg/μg plasmid DNA, luciferase after 24 h, FIG. 7. On the procedure:
After incubation the cells are lysed and are assayed for gene expression. In the case of the luciferase reporter gene, luciferin and ATP are added to lysed cells and the light emitted is measured with a luminometer (see deWet et al., supra).
Cell lines such as Jurkat and K562 grow in suspension and can be transfected and the level of transgene expression (luciferase activity) determined b) the following method. Cells are harvested on the day of assay by centrifugation at 1200 rpm for 5 mins at room temperature. The cell pellet is resuspended in phosphate buffered saline and re-centrifuged. This operation is performed twice. […] The cells are then aliquoted into tubes and 0.75 ml of RPMI medium added, followed by 0.04-0.08 ml of 100 mM Chloroquine and finally 0.25 ml of DNA-complex solution. The transfection is then allowed to proceed by incubating the cells at 37° C. for 4 h. After this time the cells are harvested by centrifugation at 2000 rpm. The cells are then suspended in 1 ml of RPMI medium and re-centrifuged. Finally the cells are suspended in 0.5 ml RPMI medium containing 10% foetal bovine serum. Each 0.5 ml of transfected cell suspension is transferred to a well of a 12 well plastic culture plate containing 1.5 ml of RPMI 10% FBS. The original transfection tube is rinsed with a further 1 ml of medium and the wash transferred to the culture dish making a final volume of 3 ml. The culture plate is then incubated at 37° C. for 24-90 h in an atmosphere of 5% CO2. The contents of each well in the culture dish are transferred to centrifuge tubes and the cells collected by centrifugation at 13000 rpm. The pellet is resuspended in 0.12 ml of Lysis Buffer (100 mM sodium phosphate, pH 7.8; 8 mM magnesium chloride, 1 mM EDTA; 1% Triton X-100 and 15% glycerol) and agitated with a pipette. The lysate is centrifuged at 13000 rpm for 1 min and the supernatant collected. 80 μl of the supernatant are transferred to a luminometer tube. The luciferase activity is then assayed using a Berthold Lumat L9501 luminometer. The assay buffer used is Lysis Buffer containing 10 mM Luciferin and 100 mM ATP. Light produced by the luciferase is integrated over 4s and is described as relative light units (RLU). The data are converted to RLU/ml of lysate, RLU/cell or RLU/mg protein (protein concentration of the lysate having been determined in this case by the BioRAD Lowry assay.
In order to compare the relative efficiency of transfection of complexes composed of different NBC condensation peptides or poly-L-lysine, pRSVLuc DNA at a concentration of 100 μg/ml was condensed using peptide at a ratio of 2 μg/μg plasmid DNA as described herein with the following deviation: prior to addition to the cells (Jurkat cell line) the complexes were diluted to 20 μg/ml with 10% PEG 10 000; 37 mM sodium chloride; 25 mM sodium phosphate, pH 7.4. The cells were assayed for luciferase after 24 h.

* marks the point of attachment. Acm = CC(=O)NC*

As to “H-TRPAWRRAKRRAARRCGVSARRAARRAWRRE-OH [NBC7]”, the “ranking by numbers of transfected tumor cells (most to least efficient)” value in experiment [1] is “NBC15>NBC8, NBC9, NBC11>NBC7>>>poly-lysine”. In addition, in experiment [2], the ka was determined as 3670 M⁻¹ s⁻¹ and the kd came to 0.000133 s⁻¹. The association reaction result in experiment [2] (shape of association kinetics) is “clear biphasic kinetics”.
As for “NH2-KKSPKKAKKPAAKKSPKKAKKPAAKKSPKKAKKPAYC(Acm)-COOH (H-KKSPKKAKKPAAKKSPKKAKKPAAKKSPKKAKKPAYC(Acm)-OH; SMILES CC(=O)NCSC[C@H](NC(=O)[C@H](Cc1ccc(O)cc1)NC(=O)[C@H](C)NC(=O)[C@@H]1CCCN1C(=O)[C@H](CCCCN)NC(=O)[C@H](CCCCN)NC(=O)[C@H](C)NC(=O)[C@H](CCCCN)NC(=O)[C@H](CCCCN)NC(=O)[C@@H]1CCCN1C(=O)[C@H](CO)NC(=O)[C@H](CCCCN)NC(=O)[C@H](CCCCN)NC(=O)[C@H](C)NC(=O)[C@H](C)NC(=O)[C@@H]1CCCN1C(=O)[C@H](CCCCN)NC(=O)[C@H](CCCCN)NC(=O)[C@H](C)NC(=O)[C@H](CCCCN)NC(=O)[C@H](CCCCN)NC(=O)[C@@H]1CCCN1C(=O)[C@H](CO)NC(=O)[C@H](CCCCN)NC(=O)[C@H](CCCCN)NC(=O)[C@H](C)NC(=O)[C@H](C)NC(=O)[C@@H]1CCCN1C(=O)[C@H](CCCCN)NC(=O)[C@H](CCCCN)NC(=O)[C@H](C)NC(=O)[C@H](CCCCN)NC(=O)[C@H](CCCCN)NC(=O)[C@@H]1CCCN1C(=O)[C@H](CO)NC(=O)[C@H](CCCCN)NC(=O)[C@@H](N)CCCCN)C(=O)O) [NBC13]”, the “rank in order of relative transfection efficiency (most to least efficient)” value with Jurkat cell line was “NBC11>NBC13>NBC8>>NBC15>>>polylysine”.
For “NH2-TKKSPKKAKKPAAKKSPKKAKKPAAKKSPKKAKKPAAC(Acm)-COOH (H-TKKSPKKAKKPAAKKSPKKAKKPAAKKSPKKAKKPAAC(Acm)-OH; SMILES CC(=O)NCSC[C@H](NC(=O)[C@H](C)NC(=O)[C@H](C)NC(=O)[C@@H]1CCCN1C(=O)[C@H](CCCCN)NC(=O)[C@H](CCCCN)NC(=O)[C@H](C)NC(=O)[C@H](CCCCN)NC(=O)[C@H](CCCCN)NC(=O)[C@@H]1CCCN1C(=O)[C@H](CO)NC(=O)[C@H](CCCCN)NC(=O)[C@H](CCCCN)NC(=O)[C@H](C)NC(=O)[C@H](C)NC(=O)[C@@H]1CCCN1C(=O)[C@H](CCCCN)NC(=O)[C@H](CCCCN)NC(=O)[C@H](C)NC(=O)[C@H](CCCCN)NC(=O)[C@H](CCCCN)NC(=O)[C@@H]1CCCN1C(=O)[C@H](CO)NC(=O)[C@H](CCCCN)NC(=O)[C@H](CCCCN)NC(=O)[C@H](C)NC(=O)[C@H](C)NC(=O)[C@@H]1CCCN1C(=O)[C@H](CCCCN)NC(=O)[C@H](CCCCN)NC(=O)[C@H](C)NC(=O)[C@H](CCCCN)NC(=O)[C@H](CCCCN)NC(=O)[C@@H]1CCCN1C(=O)[C@H](CO)NC(=O)[C@H](CCCCN)NC(=O)[C@H](CCCCN)NC(=O)[C@@H](N)[C@@H](C)O)C(=O)O) [NBC9]”, the “ranking by numbers of transfected tumor cells (most to least efficient)” value in experiment [1] was “NBC15>NBC8, NBC9, NBC11>NBC7>>>poly-lysine”. The “number of transfected tumor cells / level of transfection” value in experiment [1] (48 h, nitroreductase immunostaining) is on record as “Although transfection is evident the level of transfection is noticeably lower”. Further, in experiment [2], the ka worked out at 97800 M⁻¹ s⁻¹ and the kd is 0.00293 s⁻¹.
